Test results: patent publication US20160122307A1, “PERHYDROQUINOXALINE DERIVATIVES” (DR. AUGUST WOLFF GMBH & CO. KG ARZNEIMITTEL, priority 2013, published 2016)
Where two headings read alike, the source gives them in different places.

Key:
Human opiate κ receptors [1] = biological target: T1, Human opiate κ receptors (Homo sapiens, UniProt P41145); experiment: κ opioid receptor functional assay, [35S]GTPγS binding (assay C); assay type: biochemical; conditions: for activation at 1 µM: 0.5 h, read-out: % activation functional assay at 1 μM
T1 sequence (P41145 whole entry): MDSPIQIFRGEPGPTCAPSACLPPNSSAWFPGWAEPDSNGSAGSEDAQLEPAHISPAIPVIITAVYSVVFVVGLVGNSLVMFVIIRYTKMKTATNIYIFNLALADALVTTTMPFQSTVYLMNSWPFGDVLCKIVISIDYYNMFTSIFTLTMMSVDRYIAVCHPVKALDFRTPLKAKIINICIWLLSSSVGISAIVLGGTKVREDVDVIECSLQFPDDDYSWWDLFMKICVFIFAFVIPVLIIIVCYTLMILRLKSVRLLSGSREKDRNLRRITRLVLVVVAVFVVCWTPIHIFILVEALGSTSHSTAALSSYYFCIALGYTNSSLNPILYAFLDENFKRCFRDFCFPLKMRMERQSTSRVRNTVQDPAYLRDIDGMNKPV

[2] = tested on: arachidonic acid-induced ear inflammation; assay type: in vivo, mice
Human opiate κ receptors [3] = biological target: T1, Human opiate κ receptors; assay type: binding; set-up: expressed in transfected cells; host or cells: HEK-293 cell membranes
[4] = tested on: chloroquine-induced scratching; experiment: Effects on chloroquine-induced scratching (assay L); assay type: in vivo; conditions: intrathecal injection, mice
Procedure: L. Effects on Chloroquine-Induced Scratching
Compounds are intrathecally injected in a volume of 5 μl, 10 min before the i.d. injection of chloroquine (100 μg/10 μl) in the rostral back. Following the i.d. cheek injection, mice are placed in an arena with a clear glass floor and videotaped from beneath for 30 min. Videotapes are reviewed by blinded investigators, who count the number of hindlimb scratch bouts.

[5] = topical, versus vehicle control

SMILES: CNC(=O)C(=O)N1CCN(C(=O)Cc2ccc(Cl)c(Cl)c2)[C@@H]2[C@@H](N3CCCC3)CCC[C@@H]21.Cl [Example 118]
- % activation functional assay at 1 μM (Human opiate κ receptors [1]): 104%
- EC50 (Human opiate κ receptors [1]; read-out: GTPγS EC50): < 10 nM
- increase in ear thickness [2, 5]: dose dependently prevented the increase

SMILES: COC(=O)N1CCN(C(=O)Cc2ccc(F)c(Cl)c2)[C@@H]2[C@@H](N3CC[C@H](F)C3)CCC[C@@H]21 [Example 150]
- % activation functional assay at 1 μM (Human opiate κ receptors [1]): 92%
- EC50 (Human opiate κ receptors [1]; read-out: GTPγS EC50): < 10 nM
- % binding at 100 nM (Human opiate κ receptors [3]): 97%

SMILES: CS(=O)(=O)N1CCN(C(=O)Cc2ccc(Cl)c(F)c2)C2C(N3CCC(O)C3)CCCC21.Cl (centres unmarked) [Example 122]
- % activation functional assay at 1 μM (Human opiate κ receptors [1]): 105%
- EC50 (Human opiate κ receptors [1]; read-out: GTPγS EC50): < 10 nM
- increase in ear thickness [2, 5]: dose dependently prevented the increase

SMILES: Cl.O=C(Cc1ccc(Cl)c(Cl)c1)N1CCN(S(=O)(=O)N2CCCC2)C2CCCC(N3CCC(O)C3)C21 (centres unmarked) [Example 127]
- % activation functional assay at 1 μM (Human opiate κ receptors [1]): 100%
- EC50 (Human opiate κ receptors [1]; read-out: GTPγS EC50): 10 to 100 nM
- % binding at 100 nM (Human opiate κ receptors [3]): 66%

SMILES: O=C(Cc1ccc(Cl)c(Cl)c1)N1CCN(S(=O)(=O)NC2CCCC2)[C@H]2CCC[C@H](N3CC[C@H](O)C3)[C@H]21 [Example 135]
- % activation functional assay at 1 μM (Human opiate κ receptors [1]): 105%
- EC50 (Human opiate κ receptors [1]; read-out: GTPγS EC50): < 10 nM
- % binding at 100 nM (Human opiate κ receptors [3]): 76%

SMILES: CCNS(=O)(=O)N1CCN(C(=O)Cc2ccc(Cl)c(Cl)c2)C2C(N3CCC(O)C3)CCCC21.Cl (centres unmarked) [Example 132]
- % activation functional assay at 1 μM (Human opiate κ receptors [1]): 106%
- EC50 (Human opiate κ receptors [1]; read-out: GTPγS EC50): < 10 nM
- % binding at 100 nM (Human opiate κ receptors [3]): 71%

SMILES: O=C(Cc1ccc(Cl)c(F)c1)N1CCN(S(=O)(=O)Cc2ccon2)[C@H]2CCC[C@H](N3CC[C@H](O)C3)[C@H]21 [Example 147]
- % activation functional assay at 1 μM (Human opiate κ receptors [1]): 105%
- EC50 (Human opiate κ receptors [1]; read-out: GTPγS EC50): < 10 nM
- % binding at 100 nM (Human opiate κ receptors [3]): 88%

SMILES: CCCNS(=O)(=O)N1CCN(C(=O)Cc2ccc(Cl)c(Cl)c2)C2C(N3CCC(O)C3)CCCC21.Cl (centres unmarked) [Example 133]
- % activation functional assay at 1 μM (Human opiate κ receptors [1]): 105%
- EC50 (Human opiate κ receptors [1]; read-out: GTPγS EC50): < 10 nM
- % binding at 100 nM (Human opiate κ receptors [3]): 74%

SMILES: O=C(Cc1ccc(Cl)c(Cl)c1)N1CCN(S(=O)(=O)Cc2ccon2)[C@H]2CCC[C@H](N3CC[C@H](O)C3)[C@H]21 [Example 136]
- % activation functional assay at 1 μM (Human opiate κ receptors [1]): 108%
- EC50 (Human opiate κ receptors [1]; read-out: GTPγS EC50): < 10 nM
- % binding at 100 nM (Human opiate κ receptors [3]): 96%

SMILES: Cl.O=C(Cc1ccc(Cl)c(Cl)c1)N1CCN(S(=O)(=O)NCCO)C2CCCC(N3CCC(O)C3)C21 (centres unmarked) [Example 130]
- % activation functional assay at 1 μM (Human opiate κ receptors [1]): 102%
- EC50 (Human opiate κ receptors [1]; read-out: GTPγS EC50): 10 to 100 nM
- % binding at 100 nM (Human opiate κ receptors [3]): 70%

SMILES: CN(C)S(=O)(=O)N1CCN(C(=O)Cc2ccc(Cl)c(Cl)c2)C2C(N3CCC(O)C3)CCCC21.Cl (centres unmarked) [Example 129]
- % activation functional assay at 1 μM (Human opiate κ receptors [1]): 104%
- EC50 (Human opiate κ receptors [1]; read-out: GTPγS EC50): < 10 nM
- % binding at 100 nM (Human opiate κ receptors [3]): 80%

SMILES: COC(=O)c1ccc(C(=O)N2CCN(C(=O)Cc3ccc(Cl)c(Cl)c3)C3C(N4CCCC4)CCCC32)cc1 (racemic) [Example 81]
- chloroquine-evoked scratching [4]: significantly inhibited
- activation at 1 µM (Human opiate κ receptors [1]): 102%
- increase in ear thickness [2, 5]: dose dependently prevented the increase

SMILES: Cl.O=C(Cc1ccc(Cl)c(Cl)c1)N1CCN(C(=O)NCc2ccccc2)[C@H]2CCC[C@H](N3CCCC3)[C@H]21 (racemic) [Example 41]
- % activation functional assay at 1 μM (Human opiate κ receptors [1]): 81%
- EC50 (Human opiate κ receptors [1]; read-out: GTPγS EC50): < 10 nM
- % binding at 100 nM (Human opiate κ receptors [3]): 92%

SMILES: CS(=O)(=O)N1CCN(C(=O)Cc2ccc(F)c(Cl)c2)C2C(N3CCC(O)C3)CCCC21.Cl (centres unmarked) [Example 125]
- % activation functional assay at 1 μM (Human opiate κ receptors [1]): 99%
- EC50 (Human opiate κ receptors [1]; read-out: GTPγS EC50): < 10 nM
- % binding at 100 nM (Human opiate κ receptors [3]): 80%
- increase in ear thickness [2, 5]: dose dependently prevented the increase

SMILES: CNC(=O)C(=O)N1CCN(C(=O)Cc2ccc(Cl)c(Cl)c2)[C@@H]2[C@@H](N3CC[C@H](O)C3)CCC[C@@H]21 [Example 145]
- % activation functional assay at 1 μM (Human opiate κ receptors [1]): 103%
- EC50 (Human opiate κ receptors [1]; read-out: GTPγS EC50): 10 to 100 nM
- % binding at 100 nM (Human opiate κ receptors [3]): 62%
- increase in ear thickness [2, 5]: dose dependently prevented the increase

SMILES: CC(C)NS(=O)(=O)N1CCN(C(=O)Cc2ccc(Cl)c(Cl)c2)[C@@H]2[C@@H](N3CC[C@H](O)C3)CCC[C@@H]21 [Example 134]
- % activation functional assay at 1 μM (Human opiate κ receptors [1]): 102%
- EC50 (Human opiate κ receptors [1]; read-out: GTPγS EC50): < 10 nM
- % binding at 100 nM (Human opiate κ receptors [3]): 67%

SMILES: O=C(Cc1ccc(Cl)c(Cl)c1)N1CCN(S(=O)(=O)N2CCOCC2)[C@H]2CCC[C@H](N3CC[C@H](O)C3)[C@H]21 [Example 137]
- % activation functional assay at 1 μM (Human opiate κ receptors [1]): 101%
- EC50 (Human opiate κ receptors [1]; read-out: GTPγS EC50): < 10 nM
- % binding at 100 nM (Human opiate κ receptors [3]): 71%

SMILES: COC(=O)N1CCN(C(=O)Cc2ccc(Cl)c(Cl)c2)C2C(N3CCC(C(N)=O)C3)CCCC21.Cl (mixture of isomers) [Example 84]
- % activation functional assay at 1 μM (Human opiate κ receptors [1]): 99%
- EC50 (Human opiate κ receptors [1]; read-out: GTPγS EC50): 10 to 100 nM
- % binding at 100 nM (Human opiate κ receptors [3]): 89%

SMILES: CC(C)OC(=O)C(=O)N1CCN(C(=O)Cc2ccc(Cl)c(Cl)c2)[C@@H]2[C@@H](N3CCCC3)CCC[C@@H]21.Cl [Example 123]
- % activation functional assay at 1 μM (Human opiate κ receptors [1]): 99%
- EC50 (Human opiate κ receptors [1]; read-out: GTPγS EC50): < 10 nM
- % binding at 100 nM (Human opiate κ receptors [3]): 68%

SMILES: COC(=O)N1CCN(C(=O)Cc2ccc(Cl)c(F)c2)[C@@H]2[C@@H](N3CC[C@H](O)C3)CCC[C@@H]21 [Example 112]
- activation at 1 µM (Human opiate κ receptors [1]): 93%
- EC50 (Human opiate κ receptors [1]; GTPγS EC50 (nM)): < 10 nM
- increase in ear thickness ([2]; mouse, in vivo): dose dependently prevented the increase

SMILES: O=C(Cc1ccc(F)c(F)c1)N1CCN(S(=O)(=O)Cc2ccon2)[C@H]2CCC[C@H](N3CC[C@H](O)C3)[C@H]21 [Example 149]
- % activation functional assay at 1 μM (Human opiate κ receptors [1]): 97%
- EC50 (Human opiate κ receptors [1]; read-out: GTPγS EC50): < 10 nM
- % binding at 100 nM (Human opiate κ receptors [3]): 81%

SMILES: Cl.O=C(Cc1ccc(Cl)c(Cl)c1)N1CCN(S(=O)(=O)c2cn[nH]c2)C2CCCC(N3CCC(O)C3)C21 (centres unmarked) [Example 128]
- % activation functional assay at 1 μM (Human opiate κ receptors [1]): 95%
- EC50 (Human opiate κ receptors [1]; read-out: GTPγS EC50): < 10 nM
- % binding at 100 nM (Human opiate κ receptors [3]): 92%

SMILES: COC(=O)N1CCN(C(=O)Cc2ccc(Cl)c(Cl)c2)[C@@H]2[C@@H](N(C)C)CCC[C@@H]21.Cl (racemic) [Example 17]
- % activation functional assay at 1 μM (Human opiate κ receptors [1]): 92%
- EC50 (Human opiate κ receptors [1]; read-out: GTPγS EC50): < 10 nM
- % binding at 100 nM (Human opiate κ receptors [3]): 92%
- % binding at 1 μM (Human opiate κ receptors [3]): 97%

SMILES: O=C(Cc1ccc(Cl)cc1)N1CCN(S(=O)(=O)Cc2ccon2)[C@H]2CCC[C@H](N3CC[C@H](O)C3)[C@H]21 [Example 146]
- % activation functional assay at 1 μM (Human opiate κ receptors [1]): 103%
- EC50 (Human opiate κ receptors [1]; read-out: GTPγS EC50): < 10 nM
- % binding at 100 nM (Human opiate κ receptors [3]): 76%

SMILES: COC(=O)c1ccc(C(=O)N2CCN(C(=O)Cc3ccc(Cl)c(Cl)c3)[C@@H]3[C@@H](N4CCCC4)CCC[C@@H]32)cc1.Cl [Example 114]
- chloroquine-evoked scratching [4]: significantly inhibited
- % activation functional assay at 1 μM (Human opiate κ receptors [1]): 93%
- EC50 (Human opiate κ receptors [1]; read-out: GTPγS EC50): 10 to 100 nM
- increase in ear thickness [2, 5]: dose dependently prevented the increase

SMILES: Cl.NCC(=O)N1CCN(C(=O)Cc2ccc(Cl)c(Cl)c2)[C@@H]2[C@@H](N3CCCC3)CCC[C@@H]21 (racemic) [Example 44]
- % binding at 100 nM (Human opiate κ receptors [3]): 41%

SMILES: CNS(=O)(=O)N1CCN(C(=O)Cc2ccc(Cl)c(Cl)c2)C2C(N3CCC(O)C3)CCCC21.Cl (centres unmarked) [Example 131]
- % activation functional assay at 1 μM (Human opiate κ receptors [1]): 104%
- EC50 (Human opiate κ receptors [1]; read-out: GTPγS EC50): < 10 nM
- % binding at 100 nM (Human opiate κ receptors [3]): 78%

SMILES: CCOC(=O)COC(=O)N1CCN(C(=O)Cc2ccc(Cl)c(Cl)c2)C2C(N3CCCC3)CCCC21.Cl (centres unmarked) [Example 111]
- % activation functional assay at 1 μM (Human opiate κ receptors [1]): 105%
- EC50 (Human opiate κ receptors [1]; read-out: GTPγS EC50): < 10 nM
- % binding at 100 nM (Human opiate κ receptors [3]): 105%

SMILES: O=C(Cc1ccc(F)c(Cl)c1)N1CCN(S(=O)(=O)Cc2ccon2)[C@H]2CCC[C@H](N3CC[C@H](O)C3)[C@H]21 [Example 148]
- % activation functional assay at 1 μM (Human opiate κ receptors [1]): 93%
- EC50 (Human opiate κ receptors [1]; read-out: GTPγS EC50): < 10 nM
- % binding at 100 nM (Human opiate κ receptors [3]): 92%
